Laboratory results from US20210275518A1, “METHODS OF USING REBASTINIB IN THE TREATMENT OF DISORDERS” (Deciphera Pharmaceuticals, LLC, priority 2020, published 2021).

What was measured:
[1] = test system: advanced or metastatic solid tumors; test: Phase 1b/2 study of rebastinib in combination with paclitaxel (Part 1; overall safety); assay type: in vivo, human
Text: (§1) This is an open-label Phase 1b/2 multicenter study in patients with advanced or metastatic solid tumors where paclitaxel may be considered appropriate treatment. Rebastinib will be administered in combination with paclitaxel in repeated 28-day cycles to primarily assess the safety, tolerability and preliminary efficacy of the combination. Adverse events (AEs) will be assessed, and laboratory values, vital sign measurements, electrocardiograms (ECGs), ophthalmologic examinations, physical examinations and Eastern Cooperative Oncology Group (ECOG) Performance Status (PS) will be obtained to evaluate the safety and tolerability of rebastinib when administered in combination with paclitaxel. Pharmacokinetic (PK) and pharmacodynamic (PD) samples will be collected at pre-specified time points.
The study consists of two parts (Part 1 and Part 2). In Part 1, patients were assigned to one of two pre-defined dose levels of rebastinib (50 or 100 mg BID) in combination with paclitaxel administered by intravenous (IV) infusion at 80 mg/m^2. Paclitaxel is to be administered by IV infusion at 80 mg/m^2 over approximately 60 minutes on Day 1, Day 8 and Day 15 of repeated 28-day cycles. Rebastinib is to be administered orally prior to the paclitaxel infusion.
Each arm was planned to enroll at least 12 evaluable patients. Additionally, if rebastinib at 100 mg BID was deemed unsafe, an additional arm dosing at 75 mg BID of rebastinib in combination with paclitaxel may be initiated. Up to 36 evaluable patients were dosed in Part 1. Safety was continuously monitored, and any arm may be terminated early if deemed unsafe by the Sponsor.
Safety and tolerability, PK and PD, and preliminary efficacy data obtained in Part 1 was used to determine the RP2D. Data for at least 12 evaluable patients through Cycle 1 must be available in an arm to declare the dose as the RP2D. Patients must receive ≥80% of planned doses of rebastinib and paclitaxel in Cycle 1 to be considered as evaluable. Enrollment of patients was paused for determination of the RP2D prior to initiation of Part 2. An RP2D was chosen by the Sponsor in consultation with the Investigators.

TIE2 = test: Pharmacodynamics: circulating Ang-2 levels (Part 1); assay type: in vivo, human; conditions: with exposure to higher doses of rebastinib in combination with paclitaxel; indicating TIE2 inhibition
Text: as §1

[2] = Pharmacokinetics of rebastinib given with carboplatin; assay type: in vivo; conditions: time point 2; 50 and 100 mg BID with carboplatin
Procedure: This is a Phase 1b/2 study where patients with mesothelioma are administered rebastinib in combination with carboplatin. The study follows a Simon 2-stage design at the MTD and R2PD. Safety and tolerability, PK and PD, and preliminary efficacy data was used to determine the RP2D. Upon determination of the RP2D or MTD, the Simon 2-stage design is initiated to dose evaluable patients using the RP2D or MTD across three indication-specific cohorts (breast cancer, ovarian cancer, and mesothelioma).

[3] = test system: Low Passage Champions TUMORGRAFT Models of Human Mesothelioma; test: Preclinical rebastinib/carboplatin combination efficacy in mesothelioma PDx models; assay type: in vivo, immunocompromised mice; conditions: Model 2; 25 mg/kg rebastinib intraperitoneal + 20 mg/kg carboplatin intravenous
Procedure: This study was conducted to obtain preclinical evidence of rebastinib/carboplatin combination efficacy in mesothelioma to support clinical development. The study was an in vivo evaluation of rebastinib single agent and in combination with carboplatin (SOC), in Low Passage Champions TUMORGRAFT® Models of Human Mesothelioma in immunocompromised mice.
Mesothelioma PDx models were studied each with 8 animals per group for total of 4 groups per model. The study endpoint was when the mean tumor volume of the control reaches 1500 mm^3 or 60 days max. Terminal tumors were be collected, fixed, and embedded.

[4] = test system: inflammatory breast cancer; test: Phase 1b/2 rebastinib + paclitaxel, Part 2 Cohort 2 (RECIST v1.1); assay type: in vivo, human
Text: Upon determination of the RP2D, Part 2 is initiated to dose up to 165 evaluable patients using the RP2D across five indication-specific cohorts. A Simon's two-stage design is applied to Part 2 to further evaluate the safety, tolerability, and preliminary efficacy of rebastinib in combination with paclitaxel in triple-negative breast (Cohort 1), inflammatory breast (Cohort 2), ovarian (Cohort 3), endometrial adenocarcinoma (Cohort 4), and gynecologic carcinosarcoma (Cohort 5) cancers. Each cohort initially enrolls up to 18 evaluable patients in the first stage. Patients must receive at least 1 dose of the combination and have 1 post-baseline assessment (including assessment of clinical progression) or be discontinued prior to the postbaseline disease assessment due to an AE at least possibly related to rebastinib, to be considered evaluable. Tumor response is assessed according to Response Evaluation Criteria in Solid Tumors (RECIST) Version 1.1. The decision to enroll patients beyond the first stage is based on response assessments obtained after the first post-dose response assessment of the last patient enrolled in the first stage of a cohort. […] If ≤4 responses are seen in a cohort, the cohort will be terminated. If >4 responses are seen prior to the last evaluable patient in the first stage, expanding the cohort may be triggered earlier. Enrollment in each cohort will pause between the first and second stage of the Simon two-stage for evaluation of response. Patients will receive study treatment until they develop progressive disease, experience unacceptable toxicity, or withdraw consent.

With `CNC(=O)c1cc(Oc2ccc(NC(=O)Nc3cc(C(C)(C)C)nn3-c3ccc4ncccc4c3)c(F)c2)ccn1` [rebastinib] the “Partial response, patients” value ([1]; Part 1, rebastinib 50 mg BID with weekly paclitaxel 80 mg/m^2) was 5 patients, the “Partial response, patients” value ([1]; Part 1, rebastinib 100 mg BID with weekly paclitaxel 80 mg/m^2) was 3 patients and the “Partial response, patients total” value ([1]; Part 1, rebastinib 50 and 100 mg BID with weekly paclitaxel 80 mg/m^2) was 8 patients. The Tolerability ([1]; Part 1, rebastinib 50 and 100 mg BID with weekly paclitaxel 80 mg/m^2, patients with advanced tumors) was “generally well tolerated”, the Muscular weakness ([1]; rebastinib 100 mg BID with weekly paclitaxel 80 mg/m^2, required dose reduction to 50 mg BID) was “high incidence” and the “Mean circulating Ang-2 levels” value (TIE2) was “increased”. For the same compound, the Rebastinib exposure [2] was “dose proportional”, the Tumor inhibition [3] was 38% and the “Patients with partial response” value ([4]; Cycle 3, Day 1) was “two”. The “Patients with stable disease” value ([4]; Cycle 3, Day 1) was “one”, the “Patients with partial response” value ([4]; Cycle 3, Day 1, Cycle 5, Day 1, and Cycle 8, Day 1) was “one” and the “Patients with stable disease” value ([4]; both Cycle 3, Day 1 and Cycle 5, Day 1) was “one”.
